Results on 62 compounds are retold here after the METLIN SMRT retention time set (Domingo-Almenara et al. 2019).

This series is described as follows: gradient 5% acetonitrile 3 min, to 50% in 2 min, to 85% in 15 min, held 3 min, 100 µL/min. The settings on record: column: Zorbax Extend-C18 2.1 x 50 mm; eluents: water / acetonitrile, 0.1% formic acid. The method, boiled down:
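Mixtures of ~100 pure standards were chromatographed on a Zorbax Extend-C18 column (2.1 × 50 mm, 1.8 μm) at 100 μL/min using water and acetonitrile, each with 0.1% formic acid. Detection used a quadrupole time-of-flight mass spectrometer in positive and negative ionization mode, and data collection spanned 3 months. Retention time was obtained from adduct peaks picked computationally and each checked manually.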
The compound `COc1ccc(C2(C(=O)N3CCCN(Cc4noc(-c5ccccc5)n4)CC3)CC2)cc1` registered an RP-LC retention time of 703 s.

Turning to `CCOc1ccc(-c2cc3c(=O)n(Cc4nc(-c5ccc(OCC)c(OC)c5)no4)ncn3n2)cc1`, the RP-LC retention time came out at 1150 s.

In turn, `O=C(NC1CC1)c1nc(C(=O)N2CCN(c3ccccc3Cl)CC2)cs1` had an RP-LC retention time of 881 s.

The compound `O=C(Cc1c[nH]c2ccccc12)N1CCC(c2noc(C3CC3)n2)C1` (configuration not stated) came in with an RP-LC retention time of 744 s.

Compound `Cc1ccc(NS(=O)(=O)c2ccc(-c3c(C)noc3C)cc2)cc1` came in with an RP-LC retention time of 928 s.

The compound `CCSc1ccccc1C(=O)NCc1ccsc1` returned an RP-LC retention time of 786 s.

In turn, `CSc1ccc(-c2nc3ccccn3c2NC2CCCCC2)cc1` had an RP-LC retention time of 802 s.

As to `CCCn1cc(CCNC(=O)c2cccc(Cl)c2)c2cccnc21`, the RP-LC retention time turned out to be 812 s.

Consider `COc1ccc(S(=O)(=O)N2CCC3(CC2)CC(C)(O)CCO3)cc1` (configuration not stated), for which the RP-LC retention time is 752 s.

Take `O=C(O)c1ccc2cc(-c3ccc(O)c(C4C5CC6CC(C5)CC4C6)c3)ccc2c1` (configuration not stated): the RP-LC retention time was 1240 s.

As for `c1cncc(-c2nc(-c3ccnc(N4CCOCC4)c3)no2)c1`, the RP-LC retention time is 953 s.

For the compound `CC(C)(C)c1ccc(C(=O)NCc2cnn3ccccc23)cc1`, the RP-LC retention time amounted to 806 s.

`Cn1cccc1CN(C(=O)C1(c2ccccc2)CCOCC1)C1CC1` had an RP-LC retention time of 843 s.

`O=C(Cc1cccn1-c1ccc(Cl)cc1)NC1CCCC1` gave an RP-LC retention time of 945 s.

As for `CC(NC(=O)C1CCN(Cc2cn(C)c3ccc(Cl)cc23)CC1)c1ccccc1` (configuration not stated), the RP-LC retention time is 727 s.

In the case of `O=C(Nc1nccs1)C1CCN(C(=O)c2ccccn2)CC1`, the RP-LC retention time stood at 555 s.

In turn, `CSc1ccc(CNC(=O)Cn2ccc3ccc(N4CCOCC4)nc32)cc1` gave an RP-LC retention time of 958 s.

In turn, `COc1ccc(-n2cc(C(=O)OCc3cccnc3)c3ccccc3c2=O)cc1` returned an RP-LC retention time of 745 s.

As for `COc1ccc(-c2nnc(-c3ccc(Cl)c(S(=O)(=O)N(C)C)c3)o2)cc1OC`, the RP-LC retention time stood at 904 s.

`O=C1Nc2cc(C(=O)N3CCN(Cc4ccccc4)CC3)ccc2N2CCCCC12` (configuration not stated) displayed an RP-LC retention time of 612 s.

`Cc1[nH]c2ccccc2c1C(=O)C(=O)Nc1ccccc1F` registered an RP-LC retention time of 846 s.

With `Cc1nc(C)c2c(n1)N(Cc1cccc(F)c1)C(=O)CC2`, the RP-LC retention time was determined as 666 s.

`COc1ccc(NC(=O)N2CC(C)Oc3ccc(C)cc32)cc1OC` (configuration not stated) displayed an RP-LC retention time of 921 s.

`Nc1ccccc1NC(=O)CCCCCC(=O)Nc1ccccc1` gave an RP-LC retention time of 683 s.

As to `O=C(NCc1cccc(Br)c1)C1CCCN(c2ccc(=O)n(-c3cccc(F)c3)n2)C1` (configuration not stated), the RP-LC retention time worked out at 899 s.

`CC(C)C(=O)N1CCCc2ccc(NC(=O)c3ccco3)cc21` showed an RP-LC retention time of 789 s.

In turn, `Cc1nnc(C2CC3(CCN(CCCO)CC3)CN2CCc2ccccc2)o1` (configuration not stated) showed an RP-LC retention time of 572 s.

For the compound `CCOC(=O)c1c(C)[nH]c(C)c1S(=O)(=O)N1CCC(C(=O)Nc2ccc(C)c(N(C)C)c2)CC1`, the RP-LC retention time amounted to 616 s.

Compound `CCc1nc2cc(-c3noc(/C=C/c4ccc(OC)c(OC)c4)n3)ccc2o1` had an RP-LC retention time of 1140 s.

The compound `Cc1ccccc1Cn1cc(-c2ccncc2)cc1C(=O)NC(C)c1cccnc1` (configuration not stated) gave an RP-LC retention time of 579 s.

The compound `Cc1ncsc1C1N(C2CCN(S(=O)(=O)c3ccccc3)CC2)C(=O)C12CCCC2` (configuration not stated) came in with an RP-LC retention time of 850 s.

Compound `Cc1noc(C)c1S(=O)(=O)N[C@@H]1CN(Cc2ccccc2)C[C@H]1CN(C)C` gave an RP-LC retention time of 570 s.

Compound `Cc1ccc(-c2nc(CCN(C)C(=O)Nc3cc(F)ccc3F)no2)cc1` registered an RP-LC retention time of 994 s.

The compound `CCOC(=O)c1cn(Cc2ccccc2F)c2nc(C)ccc2c1=O` displayed an RP-LC retention time of 880 s.

Turning to `O=S(=O)(c1cc(-c2nnc(-c3ccccc3)o2)ccc1F)N1CCOCC1`, the RP-LC retention time was 888 s.

Take `CCC(CC)C(=O)Nc1nc(-c2ccc3c(c2)N(CC)C(=O)CO3)cs1`: the RP-LC retention time came to 980 s.

Regarding `O=C(NCc1ccccn1)C(=O)NCC1OCCN1S(=O)(=O)c1cccs1` (configuration not stated), the RP-LC retention time was found to be 563 s.

As for `CN1C(=O)C2CCCCN2c2ccc(C(=O)NCCCN3CCCCCC3)cc21` (configuration not stated), the RP-LC retention time was determined as 627 s.

The compound `Cc1cc(C)c2c(N3CCCC3)nc(C(=O)NC(C)c3ccccn3)nc2n1` (configuration not stated) showed an RP-LC retention time of 586 s.

Consider `CCn1c(SCC(=O)Nc2ccc3c(c2)OCO3)nnc1-c1cn(C)nc1-c1ccc(Cl)cc1`, for which the RP-LC retention time turned out to be 819 s.

The compound `Cc1ccc(Nc2c(-c3ccc4c(c3)OCO4)nc3cnccn23)c(Br)c1` returned an RP-LC retention time of 1000 s.

With `COc1ccc(Br)c2c1C(=O)CC2`, the RP-LC retention time turned out to be 826 s.

As for `COc1ccccc1N1CCN(c2cc(SCC(=O)NCC3CCCO3)ncn2)CC1` (configuration not stated), the RP-LC retention time stood at 732 s.

`COc1cccc(NC(=O)Cn2nc3c(N4CCCCCC4)nccn3c2=O)c1` registered an RP-LC retention time of 700 s.

With `CCOC(=O)c1noc2ncnc(N(C)c3cccc(Cl)c3)c12`, the RP-LC retention time is 965 s.

On to `Cc1nc(C(=O)Nc2ccc(Cl)cc2F)c(C)o1`, for which the RP-LC retention time came out at 1020 s.

On to `COc1ccc(OC)c(CNC(=O)c2cn3c(n2)CCCC3)c1`, for which the RP-LC retention time is 587 s.

As for `COc1ccc(OC)c(NC(=O)C(=O)c2cccn2C)c1`, the RP-LC retention time amounted to 1000 s.

The compound `CC(C)n1c(=O)c(NCc2ccccc2Cl)nc2ccncc21` registered an RP-LC retention time of 596 s.

Compound `COCCn1cc(CCNC(=O)Nc2cc(Cl)ccc2C)c2cccnc21` displayed an RP-LC retention time of 795 s.

`O=C(Cc1ccsc1)Nc1cccc(-c2nnc3n2CCCC3)c1`: the RP-LC retention time was 668 s.

In the case of `CC(C)(C)C(=O)N1CCN(c2ncccc2-c2nnc(C3CC3)o2)CC1`, the RP-LC retention time was 760 s.

Consider `Cc1cnc(-c2cccnc2)n1C1CCN(S(=O)(=O)c2ccc3c(c2)OCCO3)C1` (configuration not stated), for which the RP-LC retention time was found to be 633 s.

Take `c1ccc(CC2CCN(Cc3nc(-c4ccc(N5CCOCC5)nc4)no3)CC2)cc1`: the RP-LC retention time turned out to be 716 s.

Take `CCC(CC)C(=O)N1CCC2(CC1)NCc1ccccc1-n1ccnc12`: the RP-LC retention time is 580 s.

The compound `Cc1ccc(CNC(=O)CC2CCN(C(=O)c3[nH]c(C)c(C(=O)OC(C)C)c3C)CC2)cc1` came in with an RP-LC retention time of 853 s.

Compound `CC(C)CNC(=O)C1Cn2cccc2C(=O)N1` (configuration not stated) gave an RP-LC retention time of 651 s.

Regarding `O=S(=O)(c1cccs1)N1CCN(c2cnn3c(C4CC4)nnc3c2)CC1`, the RP-LC retention time amounted to 683 s.

For the compound `c1cc(OCc2ccc(CC3CCN(C4CCOCC4)CC3)cc2)ccn1`, the RP-LC retention time stood at 548 s.

`COc1ccc(OC)c2sc(N(Cc3ccco3)C(=O)Cc3cccs3)nc12` showed an RP-LC retention time of 1050 s.

`CCc1cc(=O)n(CC(=O)N2CCc3ccccc32)c(N)n1` registered an RP-LC retention time of 627 s.

`Cc1nnc2c(NS(=O)(=O)c3ccccc3C(F)(F)F)cccn12` yielded an RP-LC retention time of 689 s.
